In one assay the test system is SARS-CoV-2. Kind of assay: microbe, parasite or virus in culture. Format: cell-based. Conditions: Severe acute respiratory syndrome coronavirus 2, VeroE6/TMPRSS2, 72 h, 50% SARS-CoV-2 infected cell death inhibitory concentration, VeroE6/TMPRSS2 cells, 3 days culture.
The target of a further assay is SARS-CoV-2 3CL protease (Severe acute respiratory syndrome coronavirus 2, UniProt P0DTD1). Description: biochemical. Conditions: 50% SARS-CoV-2 3CL protease inhibitory concentration, read-out: IC50.

Structures are written as SMILES. Read-outs that look alike come from different tables or passages of the source.

In the assay on SARS-CoV-2 (class symbols), `Cn1cnc(Cn2c(=O)nc(Nc3cc4cn(C)nc4cc3Cl)n(Cc3cccc(F)c3Cl)c2=O)n1` [II-0214] yielded a half-maximal effective concentration (EC50) of 1000 to 10000 nM. Further, the IC50 on SARS-CoV-2 3CL protease (given as class symbols) was below 100 nM.

In the assay with SARS-CoV-2 (class symbols), `Cc1cncc(-n2c(=O)nc(Nc3cc4cn(C)nc4cc3Cl)n(Cc3cc(Cl)cc(Br)c3)c2=O)c1` [II-0215] displayed an EC50 of 1000 to 10000 nM. Besides, the half-maximal inhibitory concentration (IC50) at SARS-CoV-2 3CL protease (given as class symbols) was below 100 nM.

In the assay with SARS-CoV-2 (class symbols), `Cn1cnc(Cn2c(=O)nc(Nc3cc4cn(C)nc4cc3Cl)n(Cc3cccc(F)c3F)c2=O)n1` [II-0217] registered an EC50 of 1000 to 10000 nM. At SARS-CoV-2 3CL protease (given as class symbols), the IC50 is below 100 nM.

`Cn1cnc(Cn2c(=O)nc(Nc3cc4cn(C)nc4cc3Cl)n(Cc3ccc(F)cc3Br)c2=O)n1` [II-0218]: the EC50 in the assay with SARS-CoV-2 (class symbols) fell in the range of 1000 to 10000 nM. For the same compound, the 50% inhibitory concentration (IC50) on SARS-CoV-2 3CL protease (given as class symbols) is below 100 nM.

`Cc1cncc(-n2c(=O)nc(Nc3cc4c(cc3C)OCC4)n(Cc3cc(F)c(F)c(F)c3)c2=O)c1` [II-0219] registered a 50% effective concentration (EC50) in the assay with SARS-CoV-2 (class symbols) of 1000 to 10000 nM. Further, the concentration for half-maximal inhibition (IC50) at SARS-CoV-2 3CL protease (given as class symbols) was below 100 nM.

Take `Cc1cncc(-n2c(=O)nc(Nc3cc4cn(C)nc4cc3Cl)n(Cc3ccc(F)cc3Br)c2=O)c1` [II-0220]: the EC50 in the assay on SARS-CoV-2 (class symbols) was in the range of 1000 to 10000 nM. Moreover, the IC50 at SARS-CoV-2 3CL protease (given as class symbols) was below 100 nM.

In turn, `Cc1cncc(-n2c(=O)nc(Nc3ccc4nn(C)nc4c3)n(Cc3cc(F)c(F)c(F)c3)c2=O)c1` [II-0221] came in with an EC50 with SARS-CoV-2 (class symbols) of 1000 to 10000 nM. For the same compound, at SARS-CoV-2 3CL protease (given as class symbols), the IC50 was below 100 nM.

Compound `Cc1cncc(-n2c(=O)nc(N3CCC(C)(C)CC3)n(Cc3cc(F)c(F)c(F)c3)c2=O)c1` [II-0222] had a half-maximal effective concentration (EC50) in the assay with SARS-CoV-2 (class symbols) below 1000 nM. In addition, at SARS-CoV-2 3CL protease (given as class symbols), the half-inhibitory concentration (IC50) is below 100 nM.

For the compound `Cn1cnc(Cn2c(=O)nc(Nc3cc4cn(C)nc4cc3Cl)n(Cc3cccc4ccccc34)c2=O)n1` [II-0223], the EC50 in the assay on SARS-CoV-2 (CellTiter-Glo 2.0) was 22500 nM. For the same compound, on SARS-CoV-2 3CL protease (RapidFire MS), the IC50 is 780 nM.

Take `O=c1[nH]cccc1Cn1c(=O)nc(N2CC3(CCC3)C2)n(Cc2cc(F)c(F)c(F)c2)c1=O` [II-0226]: the EC50 with SARS-CoV-2 (CellTiter-Glo 2.0) turned out to be 2770 nM. For the same compound, the concentration for half-maximal inhibition (IC50) on SARS-CoV-2 3CL protease (RapidFire MS) stood at 130 nM.

In the assay on SARS-CoV-2 (class symbols), `Cc1cncc(-n2c(=O)nc(NC3CCC3)n(Cc3cc(F)c(F)c(F)c3)c2=O)c1` [II-0227] yielded a concentration giving a half-maximal response (EC50) below 1000 nM. Besides, at SARS-CoV-2 3CL protease (RapidFire MS), the half-maximal inhibitory concentration (IC50) came to 630 nM.

For `O=c1[nH]cccc1Cn1c(=O)nc(NC2CCCCC2)n(Cc2cc(F)c(F)c(F)c2)c1=O` [II-0228], in the assay on SARS-CoV-2 (CellTiter-Glo 2.0), the EC50 was 5000 nM. In addition, the 50% inhibitory concentration (IC50) at SARS-CoV-2 3CL protease (RapidFire MS) came to 240 nM.

Take `CSc1nc(=O)n(-c2cncc3ccccc23)c(=O)n1Cc1cc(F)c(F)c(F)c1` [II-0232]: in the assay on SARS-CoV-2 (class symbols), the EC50 is below 1000 nM. For the same compound, the IC50 on SARS-CoV-2 3CL protease (RapidFire MS) came out at 3700 nM.

On to `CCn1cc2cc(Nc3nc(=O)n(-c4cncc(C)c4)c(=O)n3Cc3cc(C#N)c(F)cc3C)c(Cl)cc2n1` [II-0233], for which the concentration giving a half-maximal response (EC50) in the assay on SARS-CoV-2 (CellTiter-Glo 2.0) amounted to 65 nM. For the same compound, on SARS-CoV-2 3CL protease (RapidFire MS), the IC50 was found to be 1.5 nM.

The compound `CNc1nc2cc(F)c(Nc3nc(=O)n(-c4cncc(C)c4)c(=O)n3Cc3cc(C#N)c(F)cc3C)cc2s1` [II-0234] displayed an EC50 in the assay with SARS-CoV-2 (class symbols) below 1000 nM. For the same compound, on SARS-CoV-2 3CL protease (given as class symbols), the IC50 was below 100 nM.

`CNc1nc2cc(Cl)c(Nc3nc(=O)n(Cc4ncn(C)n4)c(=O)n3Cc3cc(F)c(F)c(Cl)c3)cc2s1` [II-0235]: in the assay on SARS-CoV-2 (class symbols), the 50% effective concentration (EC50) was 1000 to 10000 nM. Besides, the IC50 on SARS-CoV-2 3CL protease (given as class symbols) is below 100 nM.

In turn, `CNc1nc2cc(Cl)c(Nc3nc(=O)n(-c4cncc(C)c4)c(=O)n3Cc3cc(F)c(F)cc3F)cc2s1` [II-0236] gave a concentration for a half-maximal effect (EC50) in the assay with SARS-CoV-2 (class symbols) below 1000 nM. Besides, the concentration for half-maximal inhibition (IC50) at SARS-CoV-2 3CL protease (given as class symbols) was below 100 nM.

Regarding `O=c1nc(Nc2cc3sc(NC4CC4)nc3cc2Cl)n(Cc2cc(Cl)c(F)cc2F)c(=O)n1Cc1ncccn1` [II-0237], the half-maximal effective concentration (EC50) in the assay with SARS-CoV-2 (class symbols) was below 1000 nM. In addition, the 50% inhibitory concentration (IC50) on SARS-CoV-2 3CL protease (given as class symbols) was below 100 nM.

The compound `O=c1nc(Nc2cc3cn(CCO)nc3cc2Cl)n(Cc2cc(Cl)c(F)cc2F)c(=O)n1Cc1ncccn1` [II-0238] displayed an EC50 in the assay on SARS-CoV-2 (class symbols) of 1000 to 10000 nM. Also, the 50% inhibitory concentration (IC50) at SARS-CoV-2 3CL protease (given as class symbols) is below 100 nM.

In turn, `CNc1nc2cc(Cl)c(Nc3nc(=O)n(Cc4ncccn4)c(=O)n3Cc3cc(Cl)c(F)cc3F)cc2s1` [II-0239] yielded an EC50 with SARS-CoV-2 (class symbols) of 1000 to 10000 nM. For the same compound, the IC50 on SARS-CoV-2 3CL protease (given as class symbols) was below 100 nM.

Regarding `CC(C)(O)Cn1cc2cc(Nc3nc(=O)n(Cc4ncccn4)c(=O)n3Cc3cc(Cl)c(F)cc3F)c(Cl)cc2n1` [II-0240], the 50% effective concentration (EC50) with SARS-CoV-2 (class symbols) lay within 1000 to 10000 nM. Besides, the concentration for half-maximal inhibition (IC50) on SARS-CoV-2 3CL protease (given as class symbols) is below 100 nM.

`CC(C)(O)Cn1cc2cc(Nc3nc(=O)n(Cc4ncccn4)c(=O)n3Cc3cc(F)c(F)c(Cl)c3)c(Cl)cc2n1` [II-0241] showed an EC50 in the assay with SARS-CoV-2 (CellTiter-Glo 2.0) of 1390 nM. Also, at SARS-CoV-2 3CL protease (RapidFire MS), the half-maximal inhibitory concentration (IC50) was determined as 24 nM.

In the case of `Cn1cc2cc(Nc3nc(=O)n(Cc4ncccn4)c(=O)n3Cc3cc(Cl)c(F)cc3F)c(Cl)cc2n1` [II-0242], the EC50 in the assay with SARS-CoV-2 (class symbols) was below 1000 nM. In addition, the IC50 at SARS-CoV-2 3CL protease (given as class symbols) was below 100 nM.

For `Cn1cnc(Cn2c(=O)nc(Nc3cc4sc(NCC(F)F)nc4cc3Cl)n(Cc3cc(F)c(F)c(Cl)c3)c2=O)n1` [II-0243], the 50% effective concentration (EC50) in the assay on SARS-CoV-2 (class symbols) was 1000 to 10000 nM. In addition, the IC50 on SARS-CoV-2 3CL protease (given as class symbols) is below 100 nM.

Consider `Cc1cncc(-n2c(=O)nc(Nc3cc4sc(NCC(F)(F)F)nc4cc3F)n(Cc3ccc(F)c(C#N)c3)c2=O)c1` [II-0244], for which the EC50 in the assay on SARS-CoV-2 (class symbols) lay in the range of 1000 to 10000 nM. Besides, the IC50 on SARS-CoV-2 3CL protease (given as class symbols) is below 100 nM.

With `Cn1cc2cc(Nc3nc(=O)n(Cc4ncccn4)c(=O)n3Cc3cc(F)c(F)cc3F)c(Cl)cc2n1` [II-0245], in the assay with SARS-CoV-2 (class symbols), the EC50 is below 1000 nM. Also, the IC50 at SARS-CoV-2 3CL protease (given as class symbols) was below 100 nM.

The record behind these values is US12559474B2, “Triazine derivatives having virus replication inhibitory activity and pharmaceutical composition comprising the same” (priority 2021, dated 2026).
